The text below walks through data of patent US20230346741A1, “ERIODICTYOL COMPOSITIONS AND METHODS” (CAS PROPERTIES, LLC, priority 2022, published 2023).

Experiment [1] has as its system IL-1β secretion, human SV40 microglia cells. The experiment is described as follows: IL-1β secretion by LPS-stimulated human SV40 microglia after pretreatment. Conditions: 50 micromolar concentration; pretreated two hours, then LPS stimulation; FIG. 2. Format: cell-based. The source says: Cultured human SV40 microglia cells were pretreated with eriodictyol (Erio) or nobiletin (Nobi) for two hours to determine the degree to which eriodictyol and nobiletin inhibits the secretion of the proinflammatory cytokine interleukin-1β(IL-1β) followed by stimulation by bacteria lipopolysaccharide (LPS).

Experiment [2] is described as follows: Treatment of a subject with long-COVID syndrome (case report). To be noted: 60 mg per day (2 x 30 mg capsules) for three months; one subject. Format: in vivo, human. On the procedure: A subject having a diagnosis of long-COVID syndrome was administered 60 milligrams (mg) eriodictyol (30 mg/vegetarian capsule; 2 capsules daily) per day for three months. The subject reported an over 80% reduction in long-covid symptoms that included a 80% reduction in fatigue, brain fog, difficulty concentrating, difficulty remembering, difficulty finding the right words, and difficulty multi-tasking.

The next experiment has as its system Chikungunya virus. The experiment is described as follows: Plaque reduction in human microglia cells infected with Chikungunya virus. Conditions: 100 micromolar concentration; FIG. 1.

On to `COc1ccc(-c2cc(=O)c3c(OC)c(OC)c(OC)c(OC)c3o2)cc1OC` [nobiletin, reference compound], for which, in experiment [1], the “inhibition of IL-1β secretion compared with luteolin and methoxyluteolin” value is “more potent inhibitors of IL-1β secretion as compared to luteolin (Lut) and methoxyluteolin (Methlut)”.
Regarding `O=C1C[C@@H](c2ccc(O)c(O)c2)Oc2cc(O)cc(O)c21` [eriodictyol, (2S)-2-(3,4-Dihydroxyphenyl)-5,7-dihydroxy-2,3-dihydro-4H-1-benzopyran-4-one], the “inhibition of IL-1β secretion compared with luteolin and methoxyluteolin” value in experiment [1] is “more potent inhibitors of IL-1β secretion as compared to luteolin (Lut) and methoxyluteolin (Methlut)”. Further, in experiment [2], the “reduction in fatigue, brain fog, difficulty concentrating, remembering, finding the right words and multi-tasking (subject-reported)” value is on record as 80%; the “reduction in long-covid symptoms (subject-reported)” value is given as “over 80%”. In addition, the “potency of plaque inhibition compared with nobiletin” value in the experiment on Chikungunya virus was “slightly more potent inhibitor than nobiletin”.
